Measurements published in patent US20140154315A1, “Hydrophobic Preparations” (VAXCINE LTD., priority 2011, published 2014).

Test system: collagen-induced arthritis (CIA) in DBA-1 mice
Assay: Oral collagen II preparation in mouse collagen-induced arthritis model, Example 10
Format: in vivo
Settings: 20 ug dose, oral gavage 4 times before CIA induction; FIGS. 1 and 2
Procedure: • 1. Ten-twelve week old male DBA-1 mice were weighed and divided into 3 groups (n=8/group) as outlined below. All groups were treated orally (by gavage) 4 times (days −10, −7, −5 & −3) prior to induction of collagen-induced arthritis (CIA) by injection of 100 ug collagen in Complete Freunds Adjuvant at the base of the tail. • 2. Arthritis was induced in all animals on day 0, followed by a boost on day 21, and incidence and severity assessed and scored on days 5, 7, 9, 12, 14, 16, 19 and 21 after the boost. Three treatment groups with 8 animals per group were used as outlined below: • (i). CIA+gavage with oil alone • (ii). CIA+gavage with oil containing bovine collagen II (10 μg/dose) • (iii). CIA+gavage with bovine collagen II ([…])
Clinical scores of arthritis incidence (% of animals in each group affected with arthritis of any severity in any number of joints) and arthritis severity (the severity of disease in each individual mouse) was performed after CIA induction for the duration of the experiment. A standard arthritis scoring system was used as outlined below. Each paw is evaluated for swelling and deformity, scored and a total calculated for each animal.
Score 0: No arthritis Score 1:1-2 toes affected only Score 2: 3 or >toes and/or swelling of the paw (metacarpus/metatarsus) Score 3: swelling of the carpus/tarsus Score 4: deformity with ankylosis of the carpus/tarsus • 3. […]

**Q.** How did the “number of animals suffering from arthritis (incidence)” value turn out when “collagen alone: bovine collagen II given by gavage without oil formulation” was run?
**A.** The value was “reduction in the number of animals suffering from arthritis”.
